Data as given in publication PMC8763936 (Investigational New Drugs, 2021).
Where “and” joins values, the source holds several entries; their conditions need not be identical. Equal entries are not always repeated. Where two headings read alike, the source gives them in different places.

How the values were obtained:
[1] = Metabolic profile of entrectinib in human hepatocytes
[2] = target: T1, CYP1A2 (Homo sapiens, UniProt P05177); assay: Metabolism by recombinantly expressed CYP enzymes
T1 sequence (P05177 1-516): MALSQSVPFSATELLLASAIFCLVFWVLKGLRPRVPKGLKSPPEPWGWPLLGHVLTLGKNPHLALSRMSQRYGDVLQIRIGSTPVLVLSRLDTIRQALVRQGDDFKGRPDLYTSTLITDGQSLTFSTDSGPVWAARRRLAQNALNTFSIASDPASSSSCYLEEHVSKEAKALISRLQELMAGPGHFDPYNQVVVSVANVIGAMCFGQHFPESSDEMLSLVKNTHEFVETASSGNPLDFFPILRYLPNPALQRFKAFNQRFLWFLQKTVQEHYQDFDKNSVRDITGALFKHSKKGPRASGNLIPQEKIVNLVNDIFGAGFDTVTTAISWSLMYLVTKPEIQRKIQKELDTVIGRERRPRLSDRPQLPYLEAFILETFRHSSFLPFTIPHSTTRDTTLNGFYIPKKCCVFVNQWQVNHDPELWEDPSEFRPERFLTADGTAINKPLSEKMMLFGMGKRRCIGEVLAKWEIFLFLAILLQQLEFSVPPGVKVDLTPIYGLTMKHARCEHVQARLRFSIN

[3] = target: T2, CYP2B6 (Homo sapiens, UniProt P20813); assay: In vitro CYP inhibition in human liver microsomes; assay type: in vitro ADME; parameters: purchased Corning-Gentest
T2 sequence (P20813 1-491): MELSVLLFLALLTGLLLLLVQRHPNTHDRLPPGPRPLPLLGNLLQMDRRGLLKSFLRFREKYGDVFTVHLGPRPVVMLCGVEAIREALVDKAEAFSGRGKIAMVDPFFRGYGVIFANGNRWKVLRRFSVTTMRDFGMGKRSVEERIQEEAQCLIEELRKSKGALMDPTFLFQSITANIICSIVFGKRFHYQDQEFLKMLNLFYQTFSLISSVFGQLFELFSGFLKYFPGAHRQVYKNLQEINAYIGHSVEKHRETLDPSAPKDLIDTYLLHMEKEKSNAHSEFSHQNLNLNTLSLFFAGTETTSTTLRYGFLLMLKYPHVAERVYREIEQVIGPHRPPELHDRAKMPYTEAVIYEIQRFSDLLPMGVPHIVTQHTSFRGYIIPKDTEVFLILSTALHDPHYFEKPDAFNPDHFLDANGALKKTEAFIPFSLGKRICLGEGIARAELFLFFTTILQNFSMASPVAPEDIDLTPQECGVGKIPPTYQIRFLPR

[4] = Metabolic profile of entrectinib in pooled human liver microsomes
[5] = target: T3, MDR1 (P-gp) (Homo sapiens, UniProt P08183); assay: In vitro P-gp inhibition; assay type: in vitro ADME
T3 construct: expressed in transfected cells

[6] = target: CYP3A5 (Homo sapiens, UniProt P20815); assay: Metabolism by recombinantly expressed CYP enzymes; parameters: Entrectinib Metabolism to M5 / M5 Metabolism: key to the marks not given beside the values
[7] = Study 1 Cohort 1: single dose entrectinib alone or with itraconazole, plasma pharmacokinetics; conditions: for M5/Entrectinib ratio, AUCinf / M5/Entrectinib ratio, Cmax: arithmetic mean (CV)
Description: All doses of study medication were administered at the study center.

[8] = target: T4, CYP2D6 (Homo sapiens, UniProt P10635); assay: Metabolism by recombinantly expressed CYP enzymes
[9] = target: T1, CYP1A2; assay: In vitro CYP inhibition in human liver microsomes; assay type: in vitro ADME; parameters: purchased Corning-Gentest
[10] = test system: CYP3A4/5; assay: In vitro CYP inhibition (direct and time-dependent) in human liver microsomes; assay type: in vitro ADME
[11] = target: CYP2C9 (Homo sapiens, UniProt P11712); assay: Metabolism by recombinantly expressed CYP enzymes
[12] = target: T4, CYP2D6; assay: In vitro CYP inhibition in human liver microsomes; assay type: in vitro ADME; parameters: purchased Corning-Gentest
[13] = target: T2, CYP2B6; assay: Metabolism by recombinantly expressed CYP enzymes
[14] = target: T5, CYP2C19 (Homo sapiens, UniProt P33261); assay: In vitro CYP inhibition in human liver microsomes; assay type: in vitro ADME; parameters: purchased Corning-Gentest
[15] = target: CYP3A4 (Homo sapiens, UniProt P08684); assay: Metabolism by recombinantly expressed CYP enzymes; parameters: key to the marks not given beside the values
[16] = target: T5, CYP2C19; assay: Metabolism by recombinantly expressed CYP enzymes; parameters: Entrectinib Metabolism to M5: key to the marks not given beside the values
[17] = test system: CYP3A4; assay: Induction of CYP enzymes in human hepatocytes; conditions: for Relative Effectiveness ± SD Based on CYP Activity / Relative Effectiveness ± SD Based on CYP mRNA: percent of positive control
Description: (§1) In vitro induction of CYP mRNA (CYPs 1A2, 2C8, 2C9 and 3A4) or enzyme activity (CYPs 1A2, 2C19 and 3A4) was assessed in human hepatocytes.

[18] = test system: CYP1A2; assay: Induction of CYP enzymes in human hepatocytes; conditions: for Relative Effectiveness ± SD Based on CYP Activity / Relative Effectiveness ± SD Based on CYP mRNA: percent of positive control
Description: as §1

[19] = Entrectinib 100 mg alone, geometric mean (geometric CV)
[20] = Entrectinib 100 mg with itraconazole 200 mg QD, geometric mean (geometric CV)
[21] = Entrectinib 100 mg with itraconazole

T4 sequence (P10635 whole entry): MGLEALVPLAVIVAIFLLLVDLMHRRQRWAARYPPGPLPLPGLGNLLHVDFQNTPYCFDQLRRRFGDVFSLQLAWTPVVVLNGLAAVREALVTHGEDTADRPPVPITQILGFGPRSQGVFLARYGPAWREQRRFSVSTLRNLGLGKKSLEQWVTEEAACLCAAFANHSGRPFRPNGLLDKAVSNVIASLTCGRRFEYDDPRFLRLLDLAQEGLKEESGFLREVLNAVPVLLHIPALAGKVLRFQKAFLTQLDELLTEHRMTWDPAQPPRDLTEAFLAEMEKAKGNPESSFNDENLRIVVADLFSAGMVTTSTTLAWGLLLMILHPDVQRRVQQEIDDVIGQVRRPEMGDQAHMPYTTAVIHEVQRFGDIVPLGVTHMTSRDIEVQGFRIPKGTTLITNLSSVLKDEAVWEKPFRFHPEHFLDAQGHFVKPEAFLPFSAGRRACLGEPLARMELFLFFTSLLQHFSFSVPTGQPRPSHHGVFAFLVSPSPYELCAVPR
Sequence of CYP2C9 (P11712 whole entry): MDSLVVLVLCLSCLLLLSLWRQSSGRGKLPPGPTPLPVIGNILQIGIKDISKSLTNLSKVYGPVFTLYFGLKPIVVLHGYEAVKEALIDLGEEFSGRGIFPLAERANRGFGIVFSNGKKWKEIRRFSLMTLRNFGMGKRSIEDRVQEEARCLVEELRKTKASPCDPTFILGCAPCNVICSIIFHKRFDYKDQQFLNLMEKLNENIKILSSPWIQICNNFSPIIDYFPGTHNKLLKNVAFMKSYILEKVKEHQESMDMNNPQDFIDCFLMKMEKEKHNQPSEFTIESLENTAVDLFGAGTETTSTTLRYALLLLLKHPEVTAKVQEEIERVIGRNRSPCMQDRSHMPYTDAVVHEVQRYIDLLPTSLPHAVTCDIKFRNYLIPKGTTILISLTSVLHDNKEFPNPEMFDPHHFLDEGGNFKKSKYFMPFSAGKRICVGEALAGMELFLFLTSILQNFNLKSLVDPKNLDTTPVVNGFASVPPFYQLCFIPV
T5 sequence (P33261 whole entry): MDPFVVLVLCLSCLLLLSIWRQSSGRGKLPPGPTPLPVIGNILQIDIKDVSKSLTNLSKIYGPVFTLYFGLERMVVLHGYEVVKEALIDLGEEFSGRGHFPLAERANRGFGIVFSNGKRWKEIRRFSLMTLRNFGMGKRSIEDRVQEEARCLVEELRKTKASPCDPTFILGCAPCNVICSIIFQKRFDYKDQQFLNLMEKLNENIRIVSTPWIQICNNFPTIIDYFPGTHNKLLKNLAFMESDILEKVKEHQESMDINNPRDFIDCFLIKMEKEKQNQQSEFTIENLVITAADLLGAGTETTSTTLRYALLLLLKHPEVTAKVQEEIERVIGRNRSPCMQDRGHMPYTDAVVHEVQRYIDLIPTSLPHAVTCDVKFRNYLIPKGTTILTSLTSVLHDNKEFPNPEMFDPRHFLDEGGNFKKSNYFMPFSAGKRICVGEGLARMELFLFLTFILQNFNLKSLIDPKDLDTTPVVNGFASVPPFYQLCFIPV
Sequence of CYP3A5 (P20815 whole entry): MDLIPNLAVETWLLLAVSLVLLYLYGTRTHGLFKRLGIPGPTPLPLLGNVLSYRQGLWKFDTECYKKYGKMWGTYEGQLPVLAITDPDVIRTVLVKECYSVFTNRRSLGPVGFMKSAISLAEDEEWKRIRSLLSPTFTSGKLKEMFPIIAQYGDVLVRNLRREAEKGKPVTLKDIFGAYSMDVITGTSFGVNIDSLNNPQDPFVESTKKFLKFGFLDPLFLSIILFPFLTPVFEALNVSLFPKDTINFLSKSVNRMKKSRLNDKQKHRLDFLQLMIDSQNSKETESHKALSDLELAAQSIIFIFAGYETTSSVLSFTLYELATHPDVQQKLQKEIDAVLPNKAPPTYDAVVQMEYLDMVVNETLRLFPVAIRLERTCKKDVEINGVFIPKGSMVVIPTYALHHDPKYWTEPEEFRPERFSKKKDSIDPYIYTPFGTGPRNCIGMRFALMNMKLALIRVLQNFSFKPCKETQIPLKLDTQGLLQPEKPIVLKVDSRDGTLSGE
T3 sequence (P08183 whole entry): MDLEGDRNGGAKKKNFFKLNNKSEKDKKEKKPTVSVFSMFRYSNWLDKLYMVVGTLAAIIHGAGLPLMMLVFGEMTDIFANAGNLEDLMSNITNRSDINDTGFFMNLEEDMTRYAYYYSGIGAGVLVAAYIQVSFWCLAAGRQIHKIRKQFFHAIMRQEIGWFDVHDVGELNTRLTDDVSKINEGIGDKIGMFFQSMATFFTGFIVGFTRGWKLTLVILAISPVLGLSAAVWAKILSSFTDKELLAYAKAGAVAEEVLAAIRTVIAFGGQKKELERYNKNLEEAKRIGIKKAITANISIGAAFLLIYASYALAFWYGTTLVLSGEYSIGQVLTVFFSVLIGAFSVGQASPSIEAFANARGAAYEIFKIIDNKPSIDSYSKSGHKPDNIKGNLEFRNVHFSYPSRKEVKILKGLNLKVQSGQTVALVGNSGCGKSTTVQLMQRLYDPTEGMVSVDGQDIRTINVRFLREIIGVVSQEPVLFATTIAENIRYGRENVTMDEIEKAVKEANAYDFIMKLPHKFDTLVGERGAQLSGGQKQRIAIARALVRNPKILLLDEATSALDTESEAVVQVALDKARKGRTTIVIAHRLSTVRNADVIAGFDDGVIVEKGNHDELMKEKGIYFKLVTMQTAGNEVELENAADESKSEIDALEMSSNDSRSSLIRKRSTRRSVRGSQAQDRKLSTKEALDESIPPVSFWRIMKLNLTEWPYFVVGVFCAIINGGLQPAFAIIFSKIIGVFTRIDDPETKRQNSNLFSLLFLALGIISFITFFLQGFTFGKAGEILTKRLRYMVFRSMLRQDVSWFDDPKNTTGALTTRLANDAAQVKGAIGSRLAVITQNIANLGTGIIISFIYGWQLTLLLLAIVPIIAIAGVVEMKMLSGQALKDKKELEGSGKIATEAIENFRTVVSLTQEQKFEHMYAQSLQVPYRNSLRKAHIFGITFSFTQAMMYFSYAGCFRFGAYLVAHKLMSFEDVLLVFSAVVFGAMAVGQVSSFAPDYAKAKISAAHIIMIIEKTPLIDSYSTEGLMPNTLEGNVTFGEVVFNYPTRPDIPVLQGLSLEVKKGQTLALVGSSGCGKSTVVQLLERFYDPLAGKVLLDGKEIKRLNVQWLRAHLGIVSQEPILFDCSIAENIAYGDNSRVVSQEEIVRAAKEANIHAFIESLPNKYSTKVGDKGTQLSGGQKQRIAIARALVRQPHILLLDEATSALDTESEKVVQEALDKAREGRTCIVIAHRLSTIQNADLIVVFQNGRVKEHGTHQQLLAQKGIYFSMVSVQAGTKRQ
Sequence of CYP3A4 (Homo sapiens, UniProt P08684) (P08684 whole entry): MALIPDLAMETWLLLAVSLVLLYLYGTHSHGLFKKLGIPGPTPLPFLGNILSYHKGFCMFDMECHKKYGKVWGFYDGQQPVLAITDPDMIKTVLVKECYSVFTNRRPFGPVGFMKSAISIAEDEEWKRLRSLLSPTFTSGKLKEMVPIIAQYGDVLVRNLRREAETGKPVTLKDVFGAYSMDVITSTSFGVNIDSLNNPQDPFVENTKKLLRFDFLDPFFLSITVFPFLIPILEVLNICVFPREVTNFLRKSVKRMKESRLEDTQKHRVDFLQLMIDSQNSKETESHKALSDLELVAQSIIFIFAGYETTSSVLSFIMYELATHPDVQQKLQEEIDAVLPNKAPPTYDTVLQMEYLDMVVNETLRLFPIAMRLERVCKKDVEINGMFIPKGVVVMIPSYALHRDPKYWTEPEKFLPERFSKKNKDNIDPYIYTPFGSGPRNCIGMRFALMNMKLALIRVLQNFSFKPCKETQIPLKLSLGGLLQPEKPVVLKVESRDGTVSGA

In the case of CN1CCN(c2ccc(C(=O)Nc3n[nH]c4ccc(Cc5cc(F)cc(F)c5)cc34)c(NC3CCOCC3)c2)CC1 [Entrectinib], the drug metabolized ([1]; after 120 min of incubation) is reported as 29%, the “Entrectinib Metabolism to M5” value [2] is reported as “-” and the “Entrectinib Metabolism to other Products” value [2] is reported as “-”. For the same compound, the IC50 [3] was over 10 µM, the parent remained ([4]; 60 min incubation, pooled human liver microsomes with NADPH) was 47% and the IC50 [5] was 1.33 µM and 1.3 µM. For the same compound, the “Entrectinib Metabolism to M5” value [6] was “++”, the “Entrectinib Metabolism to other Products” value [6] was “+” and the t1/2 [7, 19] was 20.2 (17%) h. The t1/2 [7, 20] was 49.8 (22%) h, the “increase of AUCinf” value ([7]; entrectinib coadministered with itraconazole vs alone) was 504% and the Tmax ([7]; human, in vivo) was 5 h. The AUC(0-inf) ([7]; human, in vivo, 100 mg) was 6.19 µM·h, the Cmax ([7]; human, in vivo, 100 mg) was 358 nM and the Tmax ([7]; human, in vivo, 100 mg) was 2 h. The half-life ([7]; human, in vivo, 100 mg, t1/2, Entrectinib 100 mg alone, geometric mean (geometric CV)) was 20 h, the half-life ([7]; human, in vivo, t1/2, Entrectinib 100 mg with itraconazole 200 mg QD, geometric mean (geometric CV)) was 50 h and the “median Tmax later” value ([7]; with itraconazole vs entrectinib alone) was “approximately 3 h”. The “Entrectinib Metabolism to M5” value [8] was “+”, the “Entrectinib Metabolism to other Products” value [8] was “-” and the IC50 [9] was over 10 µM. The IC50 ([10]; human, microsomes) was 2 µM, the “Entrectinib Metabolism to M5” value [11] was “-” and the “Entrectinib Metabolism to other Products” value [11] was “-”. For the same compound, the IC50 [12] was over 10 µM, the “Entrectinib Metabolism to M5” value [13] was “-” and the “Entrectinib Metabolism to other Products” value [13] was “-”. For the same compound, the IC50 [14] was over 10 µM, the “Entrectinib Metabolism to M5” value [15] was “+++” and the “Entrectinib Metabolism to other Products” value [15] was “+++”. The “Entrectinib Metabolism to M5” value [16] was “++”, the “Entrectinib Metabolism to other Products” value [16] was “-” and the “CYP3A4 induction in vitro, in words” value ([17]; in vitro) was “weak CYP3A4 inducer”. For the same compound, the “induction of CYP1A2 mRNA or enzyme activity” value ([18]; human hepatocytes) was “did not significantly induce”.

For O=C(Nc1n[nH]c2ccc(Cc3cc(F)cc(F)c3)cc12)c1ccc(N2CCNCC2)cc1NC1CCOCC1 [M5], the “share of entrectinib metabolism” value [1] was 41%, the “share of total drug-related material” value [1] was 12% and the “M5 Metabolism” value [2] was “-”. For the same compound, the IC50 [3] was over 10 µM, the “share of [14C]entrectinib-derived radioactivity” value ([4]; human liver microsomes) was 28% and the IC50 [5] was 10.1 µM and 10 µM. The “M5 Metabolism” value [6] was “++”, the AUCinf ([7]; Entrectinib 100 mg alone, single dose, healthy subjects, fasted, geometric mean (geometric CV)) was 1710 (30%) nM•h and the “M5/Entrectinib ratio, AUCinf” value ([7]; Entrectinib 100 mg alone) was 0.288 (28%). The “M5/Entrectinib ratio, Cmax” value ([7]; Entrectinib 100 mg alone) was 0.151 (26%), the Cmax [7, 19] was 52.3 nM and the t1/2 [7, 19] was 41 h and 40.8 (22%) h. For the same compound, the Tmax ([7]; Entrectinib 100 mg alone, median (minimum, maximum)) was 5.0 (3.0, 5.0) h, the AUCinf [7, 20] was 4310 (30%) nM•h and the Cmax [7, 20] was 31.5 nM. The t1/2 [7, 20] was 88.0 (32%) h, the Tmax ([7]; Entrectinib 100 mg with itraconazole 200 mg QD, median (minimum, maximum)) was 6.0 (5.0, 48.0) h and the “M5/Entrectinib ratio, AUCinf” value [7, 21] was 0.124 (29%). For the same compound, the “M5/Entrectinib ratio, Cmax” value [7, 21] was 0.0538 (34%), the “increase in AUCinf” value ([7]; coadministration of itraconazole with entrectinib) was “approximately 2.5 fold” and the “M5 exposure as share of entrectinib exposure (mean M5/entrectinib ratio for AUCinf)” value ([7]; entrectinib 100 mg alone) was “approximately 29%”. The “M5 exposure as share of entrectinib exposure (mean M5/entrectinib ratio for AUCinf)” value ([7]; entrectinib 100 mg coadministered with itraconazole) was 12%, the “M5 Metabolism” value [8] was “-” and the IC50 [9] was over 10 µM. The IC50 ([10]; human liver microsomes, read-out: IC50) was over 10 µM, the “M5 Metabolism” value [11] was “-” and the IC50 [12] was over 10 µM. For the same compound, the “M5 Metabolism” value [13] was “-”, the IC50 [14] was over 10 µM and the “M5 Metabolism” value [15] was “+++”. The “M5 Metabolism” value [16] was “-”, the “Relative Effectiveness ± SD Based on CYP Activity” value ([17]; M5 0.5 µM) was 1.25% ±1.17 and the “Relative Effectiveness ± SD Based on CYP mRNA” value ([17]; M5 0.5 µM) was 1.16% ±1.47. The “Relative Effectiveness ± SD Based on CYP Activity” value ([17]; M5 2.5 µM) was 4.61% ±3.06, the “Relative Effectiveness ± SD Based on CYP mRNA” value ([17]; M5 2.5 µM) was 5.9% ±5.01 and the “Relative Effectiveness ± SD Based on CYP Activity” value ([17]; M5 10 µM) was 5.42% ±4.45. The “Relative Effectiveness ± SD Based on CYP mRNA” value ([17]; M5 10 µM) was 16.5% ±11.2, the “impact on the mRNA expression or activity of CYP3A4” value ([17]; human hepatocytes) was “no significant impact” and the “Relative Effectiveness ± SD Based on CYP Activity” value ([18]; M5 0.5 µM) was 0.575% ±0.657. For the same compound, the “Relative Effectiveness ± SD Based on CYP mRNA” value ([18]; M5 0.5 µM) was 0.22% ±0.23, the “Relative Effectiveness ± SD Based on CYP Activity” value ([18]; M5 2.5 µM) was 1.30% ±1.4 and the “Relative Effectiveness ± SD Based on CYP mRNA” value ([18]; M5 2.5 µM) was 1.22% ±0.87. The “Relative Effectiveness ± SD Based on CYP Activity” value ([18]; M5 10 µM) was 0.445% ±0.27 and the “Relative Effectiveness ± SD Based on CYP mRNA” value ([18]; M5 10 µM) was 1.70% ±0.15.
